Measured values taken from patent US20140315972A1, “RS)-2-(2-oxo-4-phenylpyrrolidin-1-yl)acetamide compound having modulatory activity with a commensurate effect, pharmaceutical substance (variants) and its application, composition (variants) thereof” (priority 2011, published 2014).
Marks after values point to notes of the source that are not given here.

Tests used:
Type in all cases: in vivo
[1] = test system: mice; assay: Open field test; conditions: mice; 300 mg/kg i.p.
Protocol: Study of the effect of Phenotropil (100, 200, 300 mg/kg) on motor activity and exploratory behavior by the open field test on mice (16-24 g) in comparison with olanzapine (1 mg/kg) is shown in Tables 5-5.4. Olanzapine at higher doses has sedative activity, so for comparison with Phenotropil, the drug was used only at a dose of 1 mg/kg. The drugs and distilled water to control groups were injected intraperitoneally 40 minutes prior to the study. […] This indicates the ability of the drug to reversibility, unlike olanzapine.

[2] = test system: rats; assay: Scopolamine-induced CRPA amnesia in rats 30-35 days of age
Excerpt: Phenotropil has a pronounced mnemotropic and nootropic activity. The results of the study of the antiamnestic activity (classical technique in the equipment manufactured by Lafayette Instrument Co, USA) in the retrograde amnesia of the passive avoidance conditional reflex (CRPA) induced by maximal electroshock (MES) and scopolamine in male rats (180-250 g) are shown in Table 7. […] Taking into account the studies using the open field and cross maze tests, the nootropic action component of the modulatory drug not only may be more pronounced, but is broader in manifestation depending on the type of disorder or in unfamiliar situational conditions. The pronounced nootropic activity of Phenotropil (100, 200, 300 mg/kg) also manifests in rat pups of both sexes 30-35 days of age (Table 7.1) after scopolamine-induced CRPA amnesia.
In studying immature animals, it must be considered that to generate CRPA it is required, as was established, to apply higher educational incentives (0.6 mA, 8 pulses vs 5 pulses at 0.45 mA in adult rats) with re-training (after 48 hours). Development of amnesia also requires a higher dose of scopolamine (1.3 mg/kg) in rat pups. […] Phenotropil has not only a psychomodulatory (Ψ-modulatory) activity but also a Ψ-operandmodulatory activity given that the mnemotropic effect is associated with the expression of specific proteins and genes involved in memory, attention and learning.

[3] = test system: HSP32; assay: HSP32 level in brain structures (Western blot); conditions: Wistar rats, no Ns
[4] = test system: rats; assay: Locomotor activity in Opto-varimex, HEF and LEF rats
Excerpt: (RS)-2-(2-oxo-4-phenylpyrrolidin-1-yl)acetamide has a psychomodulatory activity with the commensurate effect on motor activity of rats.

[5] = test system: rats; assay: Hypoxia with hypercapnia in 7-day-old rats

NC(=O)CN1CC(c2ccccc2)CC1=O (racemic) [Compound 1, (RS)-2-(2-oxo-4-phenylpyrrolidine-1-yl)acetamide]
Total number of visits to the center at 3 min [1]: 4.2 ± 0.8
Total number of washings at 3 min [1]: 0.2 ± 0.2
Visits to the center during 1st min [1]: 1.2 ± 0.4
Visits to the center during 2nd min [1]: 1.3 ± 0.5
Visits to the center during 3rd min [1]: 1.7 ± 0.5
Washings during 2nd min [1]: 0 ± 0
Washings during 3rd min [1]: 0 ± 0
vertical motor activity, 1st min (Distance covered) [1]: 0.3 ± 0.2
vertical motor activity, 2nd min [1]: 2 ± 1.2
vertical motor activity, 3rd min [1]: 2.7 ± 1.1
vertical motor activity, total at 3 min [1]: 5.0 ± 1.8
LP1 (training) ([2]; 100 mg/kg): 7.2 ± 2.8
LP2 (at 24 hours) ([2]; 100 mg/kg): 25.2 ± 3.8
ΔLP ([2]; 100 mg/kg): 18.0 ± 2.9
LP1 (training) ([2]; 200 mg/kg): 11.0 ± 3.0
LP2 (at 24 hours) ([2]; 200 mg/kg): 45.2 ± 7.3
ΔLP ([2]; 200 mg/kg): 34.2 ± 9.0
LP1 (training) ([2]; 300 mg/kg): 8.0 ± 3.0
LP2 (at 24 hours) ([2]; 300 mg/kg): 82.4 ± 4.3
ΔLP ([2]; 300 mg/kg): 74.4 ± 3.7
HSP32 Total vs outbred control ([3]; 200 mg/kg single): +68.8 * %
decrease of gene expression (heat shock protein) ([3]; tested dose): 17.7%
locomotor activity vs control ([4]; HEF rats, 5 mg/kg i.g., 0-5 min): −0.06%
locomotor activity vs control ([4]; HEF rats, 5 mg/kg i.g., 5-10 min): +7.36% *
locomotor activity vs control ([4]; HEF rats, 5 mg/kg i.g., 10-15 min): −7.36%
locomotor activity vs control ([4]; HEF rats, 5 mg/kg i.g., 15-20 min): −96.53% *
locomotor activity vs control ([4]; HEF rats, 5 mg/kg i.g., 20-25 min): −103.15% *
locomotor activity vs control ([4]; HEF rats, 5 mg/kg i.g., 25-30 min): +207.1% *
locomotor activity vs control ([4]; HEF rats, 10 mg/kg i.g., 0-5 min): −4.2%
locomotor activity vs control ([4]; HEF rats, 10 mg/kg i.g., 5-10 min): −8.4%
locomotor activity vs control ([4]; HEF rats, 10 mg/kg i.g., 10-15 min): −3.73%
locomotor activity vs control ([4]; HEF rats, 10 mg/kg i.g., 15-20 min): +7.44%
locomotor activity vs control ([4]; HEF rats, 10 mg/kg i.g., 20-25 min): −4.72%
locomotor activity vs control ([4]; HEF rats, 10 mg/kg i.g., 25-30 min): 0%
locomotor activity vs control ([4]; HEF rats, 10 mg/kg i.g., accumulated, listed as Phenotropil, 10 mg/kg): −4.23%
locomotor activity vs control ([4]; LEF rats, 5 mg/kg i.g., 0-5 min): +15.0% *
locomotor activity vs control ([4]; LEF rats, 5 mg/kg i.g., 5-10 min): +6.18%
locomotor activity vs control ([4]; LEF rats, 5 mg/kg i.g., 10-15 min): +9.74%
locomotor activity vs control ([4]; LEF rats, 5 mg/kg i.g., 15-20 min): +29.1% *
locomotor activity vs control ([4]; LEF rats, 5 mg/kg i.g., 20-25 min): +2.1%
locomotor activity vs control ([4]; LEF rats, 5 mg/kg i.g., 25-30 min): +10.0% *
locomotor activity vs control ([4]; LEF rats, 10 mg/kg i.g., 0-5 min): +4.31%
locomotor activity vs control ([4]; LEF rats, 10 mg/kg i.g., 5-10 min): +11.31% *
locomotor activity vs control ([4]; LEF rats, 10 mg/kg i.g., 10-15 min): +27.85%
locomotor activity vs control ([4]; LEF rats, 10 mg/kg i.g., 15-20 min): +7.23 * %
locomotor activity vs control ([4]; LEF rats, 10 mg/kg i.g., 20-25 min): +14.39% *
locomotor activity vs control ([4]; LEF rats, 10 mg/kg i.g., 25-30 min): +3.75%
locomotor activity vs control ([4]; population (normal) rats, 5 mg/kg i.g., 0-5 min): +18.06% *
locomotor activity vs control ([4]; population (normal) rats, 5 mg/kg i.g., 5-10 min): −5.95%
locomotor activity vs control ([4]; population (normal) rats, 5 mg/kg i.g., 10-15 min): −13.03% *
locomotor activity vs control ([4]; population (normal) rats, 5 mg/kg i.g., 15-20 min): −22.55% *
locomotor activity vs control ([4]; population (normal) rats, 5 mg/kg i.g., 20-25 min): +50.76% *
locomotor activity vs control ([4]; population (normal) rats, 5 mg/kg i.g., 25-30 min): +50.97% *
locomotor activity vs control ([4]; population (normal) rats, 5 mg/kg i.g., accumulated): +4.28% *
locomotor activity vs control ([4]; population (normal) rats, 10 mg/kg i.g., 0-5 min): +38.8% *
locomotor activity vs control ([4]; population (normal) rats, 10 mg/kg i.g., 5-10 min): −5.78%
locomotor activity vs control ([4]; population (normal) rats, 10 mg/kg i.g., 10-15 min): +5.56%
locomotor activity vs control ([4]; population (normal) rats, 10 mg/kg i.g., 15-20 min): +42.91 * %
locomotor activity vs control ([4]; population (normal) rats, 10 mg/kg i.g., 20-25 min): +95.6% *
locomotor activity vs control ([4]; population (normal) rats, 10 mg/kg i.g., 25-30 min): −91.47% *
locomotor activity vs control ([4]; population (normal) rats, 10 mg/kg i.g., accumulated): +18.0% *
Duration of life of animals ([5]; 50 mg/kg): 83.3 ± 7.9 min
Duration of life of animals ([5]; 100 mg/kg): 123.2 ± 2.9 min
